{"source": "patent US11166914B2", "about": "“Tumor therapeutic agent and kit containing gemcitabine liposome composition” (FUJIFILM Corporation, priority 2015, dated 2021)", "key": {"[1]": {"conditions": "gemcitabine single agent; background statement; cited from earlier work"}, "malignant tumors": {"test_system": "malignant tumors", "conditions": "gemcitabine single agent, cancer patients; N Engl J Med 2013, 369 (18), 1691-1703; cited from earlier work"}, "[2]": {"test_system": "Capan-1 cells of a human pancreatic cancer cell strain", "test": "Pharmacological test on Capan-1 subcutaneous transplantation tumor-bearing mouse model", "type": "in vivo, female nude mouse", "conditions": "single agent, no Abx; Gem 240 mg/kg or composition A 3 mg/kg as gemcitabine; tail vein once a week for 3 weeks from day 17", "experimental": "The volume of a tumor was calculated using the following equation by measuring the major axis (a) and the minor axis (b) of the tumor with calipers. (a×b^2)×0.5 (where “a” is the major axis and “b” is the minor axis.) Equation: […]\nGemcitabine (hereinafter, also referred to as Gem), abraxane (hereinafter, also referred to as Abx), and a gemcitabine-contained liposome composition (hereinafter, also referred to as a composition A) were used as test substances.\nGem was prepared by dissolving gemcitabine hydrochloride (manufactured by TEVA) in physiological saline. Abx obtained by dissolving abraxane (manufactured by Celgene) in physiological saline was used. A gemcitabine-contained liposome composition prepared in Reference Example 1 was used.\n1×10^7 Capan-1 cells of a human pancreatic cancer cell strain were transplanted subcutaneously into the flank of a female nude mouse to form subcutaneous tumors. The effect of controlling the subcutaneous tumor in combination administration of Abx and the composition A was evaluated using the volume of the tumor as an index. As test substances, a sucrose solution was used as a group 1, Gem was used as a group 2, a composition A was used as a group 3, Abx and Gem were respectively used as a group 4 and a group 5, and Abx and a composition A were respectively used as a group 6 and a group 7. Groups 1 to 5 are comparative examples and groups 6 and 7 are examples. All test substances were administered to the tail vein once a week from day 17 after transplantation for a total of 3 weeks.\nTukey's multiple comparisons test was performed as a statistical analysis, and a P value less than 5% among the groups was determined to indicate that there is a statistically significant difference. Graphpad Prism version 5.03 was used for data processing."}}, "note": "Where a name gives a salt, the structure may show the parent alone.", "data": [{"smiles": "Nc1ccn([C@@H]2O[C@H](CO)[C@@H](O)C2(F)F)c(=O)n1", "note": "[Gem, gemcitabine hydrochloride]", "values": [{"measurement": "Retention time in blood", "setting": "[1]", "result": 20, "unit": "min"}, {"measurement": "Efficiency of single agent to a tumor", "setting": "malignant tumors", "result": 10, "unit": "%"}, {"measurement": "Median survival period", "setting": "malignant tumors", "result": 6.7, "unit": "months"}, {"measurement": "Number of days until tumor volume average value of 2,000 mm^3 is reached", "setting": "[2]", "result": 52, "unit": "days"}, {"measurement": "Tumor regression rate from start of medication", "setting": "[2]", "result": "N.R."}, {"measurement": "Tumor volume average value on day 38 after transplantation", "setting": "[2]", "result": "1397^a) mm^3"}]}]}
